Source: EP4563571A1, “PRMT5 INHIBITORS” (Beijing Earthwise Technology Co., Ltd., priority 2022, dated 2024)

What follows are molecules tested on HCT116^MTAP Deletion cells (assay: Anti-proliferation assay on cells (Cell-Titer Glo, 10 days)). Conditions: 240 h, HCT116^MTAP Deletion cells, 10 days incubation, CTG readout; read-out: HCT116^MTAP Deletion GI50.
Assay type: cell-based
Protocol: HCT116^MTAP Deletion cells were from Pharmaron (China); HCT116 cells were from ATCC; McCoy's 5A medium was purchased from Invitrogen (USA); penicillin-streptomycin and fetal bovine serum were purchased from Gibco (USA); a 384-well plate was purchased from PerkinElmer (USA); and Cell-Titer Glo reagent was purchased from Promega (USA).
Compound dissolution: All the compounds were dissolved in dimethyl sulfoxide (DMSO) and then stored. The compounds were stored at room temperature in a dry condition for 3 months for short term storage or at -20 °C for long term storage.
Cell culture and passaging
The cells were cultured strictly in accordance with ATCC requirements. The cell culture medium (McCoy's 5A medium + 10% fetal bovine serum + 1% penicillin + streptomycin) was transferred to a 15 mL centrifuge tube and centrifuged at 1000 rpm for 5 min. The supernatant was removed. The cells were resuspended with complete culture medium, inoculated into a culture dish at the required density, and cultured in an incubator at 37 °C, 95% humid air, and 5% carbon dioxide. The culture medium was replenished or the cells were passaged every 2-3 days depending on the cell growth condition.
Cell proliferation activity assay
When the confluency of cells in the culture dish reached about 90%, the cells were washed twice with PBS, and then treated with trypsin to become single cells. The cells were counted, and 40µl of the cells was inoculated into each well of a 384-well plate (50 cells/well). The plate was equilibrated at 37 °C and 5% carbon dioxide for 10 to 15 minutes. The compounds were injected into the 384-well plate using Echo550, and positive control and negative control (0.1% DMSO) were set up. Each compound was subjected to a 3-fold dilution, resulting in 10 concentration gradients, in duplicate, and the content of DMSO was 0.1%. The 384-well plate was incubated in a cell culture incubator for 10 days.
Then, 40 µl of cell proliferation assay reagent (CTG) was added to the 384-well plate, and the plate was shaken to mix well. Then, the 384-well plate was incubated at 37 °C and 5% carbon dioxide in the dark for 30 minutes. The data were read using the Envision multifunctional microplate reader. […] According to the different drug concentrations and their corresponding inhibition rates, the GI50 curve was drawn using GraphPad 8.0 software. The data were analyzed, and the final IC50 value was obtained.

Compound	GI50 [nM]
CCC(C)N(Cc1ncc(C)s1)C(=O)C(=O)Nc1cnc(N)c(C)c1 (stereo not drawn) [Example 66]	1000 to 10000
CN(C(=O)C(=O)Nc1cnc(N)c2c1cnn2C)C1COc2cc(-c3ccc(C4CC4)nc3)ccc21 (stereo not drawn) [Example 239]	< 10
CC(C)Oc1ccc2c(c1)COCC2N(C)C(=O)C(=O)Nc1cnc(N)c2c1cnn2C (stereo not drawn) [Example 128]	10 to 100
CN(C(=O)C(=O)Nc1cnc(N)c2c1cnn2C)C1COCc2nc(-c3ccccc3)ccc21 (stereo not drawn) [Example 219]	< 10
CN(C(=O)C(=O)Nc1cnc(N)c2c1cnn2C)C1COCc2c1cccc2C(F)(F)F (stereo not drawn) [Example 148]	10 to 100
CN(C(=O)C(=O)Nc1cnc(N)c2c1cnn2C)C1CCOCC1 [Example 120]	1000 to 10000
Cc1cc(NC(=O)C(=O)N(CC(C)C)c2cccc(C(F)(F)F)c2)cnc1N [Example 107]	> 10000
CN(C(=O)C(=O)Nc1cnc(N)c2c1cnn2C)C1COCc2cc(-c3ccccc3)ccc21 (stereo not drawn) [Example 226]	< 10
CN(C(=O)C(=O)Nc1cnc(N)c2c1cnn2C)C1COc2c1ccc(C(F)(F)F)c2F (stereo not drawn) [Example 208]	10 to 100
CCC(C)N(Cc1ccc(C(F)(F)F)cn1)C(=O)C(=O)Nc1cnc(N)c(C2CC2)c1 (stereo not drawn) [Example 78]	100 to 1000
CN(C(=O)C(=O)Nc1cnc(N)c2c1cnn2C)C1COCc2nc(-c3ccnn3C3CC3)ccc21 (stereo not drawn) [Example 220]	< 10
CN(C(=O)C(=O)Nc1cnc(N)c2c1cnn2C)C1COCc2cc(S(C)(=O)=O)ccc21 (stereo not drawn) [Example 227]	10 to 100
Cc1cc(NC(=O)C(=O)N(Cc2ccc(C(F)(F)F)cn2)C2CCCc3cn[nH]c32)cnc1N (stereo not drawn) [Example 60]	100 to 1000
CCC(C)N(Cc1ccc(C2CC2)cn1)C(=O)C(=O)Nc1cnc(N)c(C)c1 (stereo not drawn) [Example 71]	10 to 100
CN(C(=O)C(=O)Nc1cnc(N)c2c1cnn2C)C1COc2cc(C(F)(F)F)ncc21 (stereo not drawn) [Example 188]	10 to 100
Cn1ncc2c(NC(=O)C(=O)N(Cc3ccc(C(F)(F)F)cn3)Cc3ccnc4[nH]ccc34)cnc(N)c21 [Example 50]	< 10
CN(C(=O)C(=O)Nc1cnc(N)c2c1cnn2C)C1CCCOC1 (stereo not drawn) [Example 129]	1000 to 10000
CN(C(=O)C(=O)Nc1cnc(N)c2c1cnn2C)C1COCc2cc(C3(C#N)CC3)ccc21 (stereo not drawn) [Example 218]	< 10
CN(C(=O)C(=O)Nc1cnc(N)c2c1cnn2C)C1COc2cc(C3CC3)ccc21 (stereo not drawn) [Example 193]	10 to 100

Other lines, results leading:

GI50 [nM]	Compound
< 10	CN(C(=O)C(=O)Nc1cnc(N)c2c1cnn2C)C1COCc2cc(-c3ccnn3C3CC3)ccc21 (stereo not drawn) [Example 232]
1000 to 10000	CN(C(=O)C(=O)Nc1cnc(N)c2c1cnn2C)C1CCOC1 (stereo not drawn) [Example 126]
10 to 100	CN1CCC(c2ccc3c(c2)COCC3N(C)C(=O)C(=O)Nc2cnc(N)c3c2cnn3C)CC1 (stereo not drawn) [Example 139]
10 to 100	CN(C(=O)C(=O)Nc1cnc(N)c2c1cnn2C)C1COc2cc(C3=CCCOC3)ccc21 (stereo not drawn) [Example 169]
10 to 100	Cc1cc(-c2ccc3c(c2)COCC3N(C)C(=O)C(=O)Nc2cnc(N)c3c2cnn3C)on1 (stereo not drawn) [Example 179]
10 to 100	CN(C(=O)C(=O)Nc1cnc(N)c2c1cnn2C)C1COc2cc(S(C)(=O)=O)ccc21 (stereo not drawn) [Example 189]
10 to 100	CCC(C)N(Cc1ccc(OC(C)C)cn1)C(=O)C(=O)Nc1cnc(N)c(C)c1 (stereo not drawn) [Example 80]
10 to 100	Cc1cc(NC(=O)C(=O)N(Cc2ccc(C(F)(F)F)cn2)C(C)C(C)C)cnc1N (stereo not drawn) [Example 86]
10 to 100	CCC(C)N(C(=O)C(=O)Nc1cnc(N)c2c1cnn2C)C1COCc2cc(C(F)(F)F)ccc21 (stereo not drawn) [Example 131]
10 to 100	CN(C(=O)C(=O)Nc1cnc(N)c2c1cnn2C)C1CCOc2cc(C(F)(F)F)ccc21 (stereo not drawn) [Example 127]
10 to 100	CN(C(=O)C(=O)Nc1cnc(N)c2c1cnn2C)C1COc2cc(-c3ccc(C(F)(F)F)cn3)ccc21 (stereo not drawn) [Example 177]
< 10	CN(C(=O)C(=O)Nc1cnc(N)c2c1cnn2C)C1COCc2cc(C3(C(F)(F)F)CC3)ccc21 (stereo not drawn) [Example 237]
< 10	Cc1ncc(-c2ccc3c(c2)OCC3N(C)C(=O)C(=O)Nc2cnc(N)c3c2cnn3C)s1 (stereo not drawn) [Example 170]
10 to 100	CCC(C)N(Cc1ccc(C(F)(F)F)cn1)C(=O)C(=O)Nc1cnc(N)c2c1COC2 (stereo not drawn) [Example 54]
10 to 100	C[C@H](C1CC1)N(Cc1ccc(C(F)(F)F)cn1)C(=O)C(=O)Nc1cnc(N)c2c1cnn2C [Example 51]
10 to 100	CN(C(=O)C(=O)Nc1cnc(N)c2c1cnn2C)C1COc2cc(OC(F)F)ccc21 (stereo not drawn) [Example 204]
10 to 100	CN(C(=O)C(=O)Nc1cnc(N)c2c1cnn2C)C1COCc2cc(OC3CC3)ccc21 (stereo not drawn) [Example 171]
< 10	CN(C(=O)C(=O)Nc1cnc(N)c2c1cnn2C)C1COCc2cc(C(C)(C)C)ccc21 (stereo not drawn) [Example 217]

Same assay, conditions: HCT116^MTAP Deletion cells, 10 days incubation, CTG readout; read-out: HCT116^MTAP Deletion GI50

Compound	GI50 [nM]
Cc1cc(N)ncc1NC(=O)C(=O)N(Cc1ccc(C(F)(F)F)cn1)[C@H](C)c1ncccn1 [Example 26]	100 to 1000
CC1OCc2c(NC(=O)C(=O)N(C)C3COCc4cc(C(F)(F)F)ccc43)cnc(N)c21 (single isomer, unassigned) [Example 146-P1]	100 to 1000
Cc1cc(NC(=O)C(=O)N(Cc2ccc(C(F)(F)F)cn2)C2CCC2)cnc1N [Example 13]	100 to 1000
CN(C(=O)C(=O)Nc1cnc(N)c2c1cnn2C)C1COc2cc(-c3cnc(C4CC4)s3)ccc21 (stereo not drawn) [Example 236]	< 10
CN(C(=O)C(=O)Nc1cnc(N)c2c1cnn2C)C1COCc2cc(-c3cnn(C)c3)ccc21 (stereo not drawn) [Example 124-P2]	10 to 100
CN(C(=O)C(=O)Nc1cnc(N)c2c1cnn2C)C1COc2nc(C(F)(F)F)ccc21 (stereo not drawn) [Example 159]	100 to 1000
CCC(C)N(Cc1ccc(C(F)(F)F)cn1)C(=O)C(=O)Nc1cnc(N)c(C)c1 (single isomer, unassigned) [Example 45-P2]	10 to 100
CCOc1ccc(CN(C(=O)C(=O)Nc2cnc(N)c(C)c2)[C@H](C)c2ncccn2)nn1 [Example 35]	10 to 100
Cc1cc(NC(=O)C(=O)N(Cc2ccc(C(F)(F)F)cn2)C(C)c2cscn2)cnc1N (single isomer, unassigned) [Example 19-P2]	10 to 100
CCC(C)N(Cc1ccc(C(F)(F)F)cn1)C(=O)C(=O)Nc1cnc(N)c2c1COC2C (stereo not drawn) [Example 10]	10 to 100
CC1OCC(N(C)C(=O)C(=O)Nc2cnc(N)c3c2cnn3C)c2ccc(C(F)(F)F)cc21 (stereo not drawn) [compound 187]	< 10
CN(C(=O)C(=O)Nc1cnc(N)c2c1cnn2C)C1COc2cc(C3=CCOCC3)ccc21 (single isomer, unassigned) [Example 153-P1]	< 10

Results, then the molecule that gave them:

GI50 [nM]	Compound
10 to 100	COc1ncc(NC(=O)C(=O)N(Cc2ccc(C(F)(F)F)cn2)[C@H](C)c2ncccn2)cc1C(N)=O [Example 25]
10 to 100	CCC(C)N(Cc1ccc(C(F)(F)F)cn1)C(=O)C(=O)Nc1cnc(OC)c(C(N)=O)c1 (single isomer, unassigned) [Example 5-P1]
1000 to 10000	C[C@H](c1ncccn1)N(Cc1ccc(C(F)(F)F)cn1)C(=O)C(=O)Nc1cnc(N)c(Cl)c1 [Example 23]
100 to 1000	CCC(C)N(Cc1ccc(OCC(F)(F)F)nn1)C(=O)C(=O)Nc1cnc(N)c(C)c1 (stereo not drawn) [Example 63]
10 to 100	CN(C(=O)C(=O)Nc1cnc(N)c2c1cnn2C)C1COCc2c1ccc(F)c2F (stereo not drawn) [Example 138]
> 10000	C[C@H](c1ncccn1)N(Cc1ccc(C(F)(F)F)cn1)C(=O)C(=O)Nc1cnc(N)c2cncn12 [Example 38]
100 to 1000	C[C@H](C1CC1)N(Cc1ccc(C(F)(F)F)cn1)C(=O)C(=O)Nc1cnc(N)c2c1COC2 [Example 39]
10 to 100	Cc1cc(NC(=O)C(=O)N(Cc2ccc(C(F)(F)F)cn2)CC2CCCC2)cnc1N [Example 17]
> 10000	Cc1cc(C2CC2C(=O)N(Cc2ccc(C(F)(F)F)cn2)[C@H](C)c2ncccn2)cnc1N (stereo partly drawn) [Example 7]
< 10	Cc1ncc(-c2ccc3c(n2)COCC3N(C)C(=O)C(=O)Nc2cnc(N)c3c2cnn3C)s1 (racemic) [compound 209]
100 to 1000	Cc1cc(NC(=O)C(=O)N(C)C2COCc3cc(C4=CCOCC4)ccc32)cnc1N (racemic) [compound 162]
< 10	CN(C(=O)C(=O)Nc1cnc(N)c2c1cnn2C)C1COc2cc(Cl)c(Cl)cc21 (racemic) [compound 186]
10 to 100	CCC(C)N(Cc1ccc(C(F)(F)F)cn1)C(=O)C(=O)Nc1cnc(N)c(C)c1 (single isomer, unassigned) [Example 45-P1]
10 to 100	CC1OCc2c(NC(=O)C(=O)N(C)C3COCc4cc(C(F)(F)F)ccc43)cnc(N)c21 (single isomer, unassigned) [Example 146-P2]
